Tests used:
human CXCR2 = molecular target: T1, human CXCR2 (Homo sapiens, UniProt P25025); assay: human CXCR2 calcium flux activity (FLIPR, HEK293 cells stably expressing human CXCR2, IL-8 stimulation); format: cell-based; settings: HEK293 cells stably expressing human CXCR2, EC80 human IL-8; read-out: CXCR2 inhibitory activity, IC50
T1 construct: expressed in transfected cells; host or cells: HEK293
T1 sequence (P25025 1-360): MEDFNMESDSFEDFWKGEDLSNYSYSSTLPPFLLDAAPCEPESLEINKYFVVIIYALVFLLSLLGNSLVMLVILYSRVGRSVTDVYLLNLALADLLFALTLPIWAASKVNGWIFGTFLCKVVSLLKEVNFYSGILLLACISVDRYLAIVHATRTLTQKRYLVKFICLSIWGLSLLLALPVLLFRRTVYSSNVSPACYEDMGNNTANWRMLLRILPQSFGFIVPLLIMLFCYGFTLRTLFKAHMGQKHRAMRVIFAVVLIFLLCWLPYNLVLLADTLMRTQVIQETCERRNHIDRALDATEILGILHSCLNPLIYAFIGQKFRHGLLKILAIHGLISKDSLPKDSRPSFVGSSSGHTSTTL
Experimental: The activity of the compounds was evaluated using HEK293 cells stably expressing human CXCR2 via the FLIPR platform. A 384-well black cell culture plate (Greiner, 781946) was used, with a seeding density of 20,000 cells/well, and incubated overnight at 37°C in a 5% CO2 incubator. The culture medium in the cell plate wells was removed, and 20 µL of Fluo-4 Direct™ Calcium Assay Buffer (Invitrogen, F10471, Component C), 20 µL of 2× Fluo-4 Direct™ Calcium Assay Reagent (Invitrogen, F10471, Component A) working solution, and 10 µL of 6× test compound working solution were sequentially added to each well. The cell plate was incubated in a 37 °C, 5% CO2 incubator for 50 min, followed by a 10 min incubation at room temperature. Additionally, a 6×EC80 human IL-8 (Sigma, SRP3311) working solution was prepared. After the incubation was completed, 10 µL/well of the 6×EC80 human IL-8 working solution was transferred to the corresponding cell wells using a FLIPR instrument, and the fluorescence signal changes at an excitation wavelength of 494 nm and an emission wavelength of 516 nm were recorded over 130 s. The difference between the maximum fluorescence signal (RFUMax) and the minimum fluorescence signal (RFUMin) was used as the output signal. The compound inhibition rate and the log value of the compound concentration were calculated, and a four-parameter fitting analysis was performed using GraphPad Prism 8 software to obtain the IC50 value of the test compound. Table 1. Inhibitory activity data of compounds against CCR6 and CXCR2

human CCR6 = molecular target: T2, human CCR6 (Homo sapiens, UniProt P51684); assay: human CCR6 calcium flux activity (FLIPR, HEK293 cells stably expressing human CCR6, CCL20 stimulation); format: cell-based; settings: for IC50: HEK293 cells stably expressing human CCR6, EC80 human MIP-3 alpha/CCL20, read-out: CCR6 inhibitory activity, IC50; for CCR6 selectivity: ratio of CXCR2 IC50 to CCR6 IC50
T2 construct: expressed in transfected cells; host or cells: HEK293
T2 sequence (P51684 1-374): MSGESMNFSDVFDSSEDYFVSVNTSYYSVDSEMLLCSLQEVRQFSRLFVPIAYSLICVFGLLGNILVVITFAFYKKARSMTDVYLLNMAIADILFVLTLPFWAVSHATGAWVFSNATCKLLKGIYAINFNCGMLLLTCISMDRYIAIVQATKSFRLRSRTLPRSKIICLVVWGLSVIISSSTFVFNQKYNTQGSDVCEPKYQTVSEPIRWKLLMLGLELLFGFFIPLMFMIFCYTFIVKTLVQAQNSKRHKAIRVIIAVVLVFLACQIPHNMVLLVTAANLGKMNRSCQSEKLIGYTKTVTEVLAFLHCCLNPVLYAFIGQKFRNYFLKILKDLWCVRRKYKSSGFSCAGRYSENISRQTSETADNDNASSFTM
Procedure, shortened: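 Compounds preincubated with Fluo-4 Direct-loaded cells 50 min at 37 °C, then 10 min at room temperature, before CCL20 challenge at EC80. Fluorescence (ex 494/em 516 nm) recorded 90 s; max−min signal gives inhibition, four-parameter fit yields IC50.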

[1] = in vitro liver microsome metabolic stability, human; format: in vitro ADME; settings: Human liver microsomes, 37°C
Experimental: (§1) Preparation of working solutions for test compounds and standards: An appropriate amount of the compound was accurately weighed and dissolved in a corresponding volume of suitable solvent to prepare 1 mM stock solutions of the test compounds and standards. The stock solutions were then diluted with appropriate solvent to obtain 100 µM working solutions of the test compounds, ensuring that the DMSO content in the working solutions remained below 10%.
(§2) The internal standard compound testosterone (or tolbutamide) and its corresponding solvent, internal standard concentration (200 ng/mL), were selected based on the properties of the test compound.
(§3) • Solution A: 0.1 mol/L K2HPO4 (2.28 g K2HPO4·3H2O was dissolved in 100 mL of double-distilled water); • Solution B: 0.1 mol/L KH2PO4 (1.36 g KH2PO4 was dissolved in 100 mL of double-distilled water); • 80.2 mL of Solution A and 19.8 mL of Solution B were mixed thoroughly, and the pH was adjusted to 7.4.
(§4) 37.5 mg of glycine was weighed, dissolved in 100 mL of ultrapure water, and adjusted to pH 8.0 with NaOH.
(§5) 1.25 mg of glucose-6-phosphate dehydrogenase (400 U/mg) was weighed (the specific amount weighed was calculated based on the activity of the purchased glucose-6-phosphate dehydrogenase), dissolved in 1 mL of glycine buffer to a concentration of 500 U/mL, aliquoted into 20 µL per tube, and stored at -20°C for future use.
(§6) 7.83 mg of NADP, 0.06 mL of D-glucose-6-phosphate (260 mg/mL), and 10.17 mg of MgCl2·6H2O were precisely weighed.
(§7) The mixture was dissolved in 1 mL of pure water. The cofactor ratio composition: NADP 10 mM, D-glucose-6-phosphate 60 mM, MgCl2·6H2O 50 mM.
(§8) The reaction system (taking a 500 µL system as an example) was composed of the following solution ratios: 416.5 µL phosphate buffer, 5 µL compound working solution, 25 µL liver microsomes, 3.5 µL glucose-6-phosphate dehydrogenase, and 50 µL cofactor solution. The total incubation volume could be adjusted according to experimental requirements.
(§9) 416.5 µL of phosphate buffer was taken, 25 µL of liver microsomes, 3.5 µL of glucose-6-phosphate dehydrogenase, and 50 µL of cofactor solution were added, vortexed twice to mix, and preincubated in a 37°C water bath for 5 minutes. Then, 5 µL of the test compound working solution was added, vortexed twice to mix, each time for 2-3 seconds, and placed in a 37°C water bath to initiate the reaction, with two parallel samples set. At 0.5 min, 1 min, 2 min, 5 min, 15 min, and 30 min after the reaction, 50 µL of the mixture was taken and added to centrifuge tubes containing 200 µL of 0°C pre-cooled internal standard working solution to terminate the reaction, vortexed for 1 minute to mix, and centrifuged at 13,000 rpm for 10 minutes in a 4°C pre-cooled high-speed centrifuge. The supernatant was collected for analysis. After the compound was added and vortex-mixed, 50 µL of the mixture was rapidly transferred to a centrifuge tube containing 200 µL of a pre-cooled (0°C) internal standard working solution to terminate the reaction, vortex-mixed for 1 minute, and used as the relative zero-point sample (relative to the standard group). The sample was then placed into a 37°C water bath to initiate the reaction, and timing was started.
(§10) The sample analysis of the test compound was performed using the liquid chromatography-tandem mass spectrometry (LCMS/MS) method. The semi-quantitative determination was performed using the ratio of the analyte peak area to the internal standard peak area. The retention times of the analyte and internal standard, chromatogram acquisition, and chromatogram integration were processed using Analyst software.
(§11) The in vitro elimination rate constant k of the test compound and the control compound was determined by converting the ratio of the peak area of the test compound to the internal standard into the remaining rate, and T1/2 was then calculated according to the following formula. T1/2 = (Ln2)/(k) = (0.693)/(k) [formula] Table 3. […]

[2] = in vitro liver microsome metabolic stability, beagle dog; format: in vitro ADME; settings: Beagle dog liver microsomes, 37°C
Experimental: as §1, §2, §3, §4, §5, §6, §7, §8, §9, §10, §11

[3] = in vitro liver microsome metabolic stability, rat; format: in vitro ADME; settings: Rat liver microsomes, 37°C
Experimental: as §1, §2, §3, §4, §5, §6, §7, §8, §9, §10, §11

SMILES | IC50 (human CXCR2) [nM] | IC50 (human CCR6) [nM] | CCR6 selectivity (human CCR6) | Liver microsome T1-2 (min) Human [1] [min] | Liver microsome T1-2 (min) Beagle dog [2] [min] | Liver microsome T1-2 (min) Rat [3] [min]
Cc1ccc(F)nc1[C@H](Nc1c(Nc2ccnc(C(=O)N(C)C)c2O)c(=O)c1=O)C1(C)CCCC1 [compound 014, (R)-4-((2-(((6-fluoro-3-methylpyridin-2-yl)(1-methylcyclopentyl)methyl)amino)-3,4-dioxocyclobut-1-en-1-yl)amino)-3-hydroxy-N,N-dimethylpicolinamide] | 6740 | 14.3 | 471.4 | – | – | –
CN(C)C(=O)c1nccc(Nc2c(N[C@@H](c3ncccc3CF)C3(C)CCCC3)c(=O)c2=O)c1O [compound 016, (R)-4-((2-(((3-(fluoromethyl)pyridin-2-yl)(1-methylcyclopentyl)methyl)amino)-3,4-dioxocyclobut-1-en-1-yl)amino)-3-hydroxy-N,N-dimethylpicolinamide] | 27600 | 55.8 | 494.9 | – | – | –
CN(C)C(=O)c1nccc(Nc2c(N[C@@H](c3ncccc3Cl)C3(C)CCCC3)c(=O)c2=O)c1O [compound 019, (R)-4-((2-(((3-chloropyridin-2-yl)(1-methylcyclopentyl)methyl)amino)-3,4-dioxocyclobut-1-en-1-yl)amino)-3-hydroxy-N,N-dimethylpicolinamide] | 1820 | 5 | 364.2 | – | – | –
CN(C)C(=O)c1nccc(Nc2c(N[C@@H](c3nc(F)ccc3Cl)C3(C)CCCC3)c(=O)c2=O)c1O [compound 025, (R)-4-((2-(((3-chloro-6-fluoropyridin-2-yl)(1-methylcyclopentyl)methyl)amino)-3,4-dioxocyclobut-1-en-1-yl)amino)-3-hydroxy-N,N-dimethylpicolinamide] | 791 | 2.8 | 282.4 | – | – | –
Cc1ccc(C)c([C@H](Nc2c(Nc3ccnc(C(=O)N(C)C)c3O)c(=O)c2=O)C2(C)CCCC2)n1 [compound 051, (R)-4-((2-(((3,6-dimethylpyridin-2-yl)(1-methylcyclopentyl)methyl)amino)-3,4-dioxocyclobut-1-en-1-yl)amino)-3-hydroxy-N,N-dimethylpicolinamide] | 31400 | 12.7 | 2469.1 | – | – | –
CC1([C@@H](Nc2c(Nc3ccnc(C(=O)N4CCOCC4)c3O)c(=O)c2=O)c2nc(F)ccc2F)CCCC1 [compound 060, (R)-3-(((3,6-difluoropyridin-2-yl)(1-methylcyclopentyl)methyl)amino)-4-((3-hydroxy-2-(morpholine-4-carbonyl)pyridin-4-yl)amino)cyclobut-3-ene-1,2-dione] | 393 | 1.9 | 207.0 | – | – | –
CNC(=O)c1c(Cl)ccc(Nc2c(N[C@@H](c3ncccc3C)C3(C)CCCC3)c(=O)c2=O)c1O [compound 064, (R)-6-chloro-2-hydroxy-N-methyl-3-((2-(((1-methylcyclopentyl)(3-methylpyridin-2-yl)methyl)amino)-3,4-dioxocyclobut-1-en-1-yl)amino)benzamide] | 11200 | 6.5 | 1730.2 | – | – | –
Cc1cc(F)cnc1[C@H](Nc1c(Nc2ccnc(C(=O)N(C)C(C)C)c2O)c(=O)c1=O)C1(C)CCCC1 [compound 066, (R)-4-((2-(((5-fluoro-3-methylpyridin-2-yl)(1-methylcyclopentyl)methyl)amino)-3,4-dioxocyclobut-1-en-1-yl)amino)-3-hydroxy-N-isopropyl-N-methylpicolinamide] | 47900 | 19 | 2522.7 | – | – | –
CN(C)C(=O)c1nccc(Nc2c(N[C@@H](c3cccc(C(F)F)n3)C3(C)CCCC3)c(=O)c2=O)c1O [compound 107, (R)-4-((2-(((6-(difluoromethyl)pyridin-2-yl)(1-methylcyclopentyl)methyl)amino)-3,4-dioxocyclobut-1-en-1-yl)amino)-3-hydroxy-N,N-dimethylpicolinamide] | 745 | 3.8 | 196.0 | – | – | –
CC#CC(Nc1c(Nc2ccnc(C(=O)N(C)C)c2O)c(=O)c1=O)C1(C)CCC(F)(F)C1 (stereo not shown) [compound 111, 4-((2-((1-(3,3-difluoro-1-methylcyclopentyl)but-2-yn-1-yl)amino)-3,4-dioxocyclobut-1-en-1-yl)amino)-3-hydroxy-N,N-dimethylpicolinamide] | – | 106 | – | 548.28 | 982.5 | 266.64
CN(C)C(=O)c1nccc(Nc2c(N[C@@H](C#CC3CCC3)C3(C)CCCC3)c(=O)c2=O)c1O [compound 116, (R)-4-((2-((3-cyclobutyl-1-(1-methylcyclopentyl)prop-2-yn-1-yl)amino)-3,4-dioxocyclobut-1-en-1-yl)amino)-3-hydroxy-N,N-dimethylpicolinamide] | 379 | 28.9 | 13.1 | – | – | –

From EP4703354A1, “COMPOUND AS CCR6 ANTAGONIST, AND PHARMACEUTICAL COMPOSITION AND USE THEREOF” (Wuhan Createrna Science and Technology Co.,Ltd., priority 2023, dated 2024)
